Experimental data taken from PubChem BioAssay (NCI).
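Values below derive from 48-hour exposures of cells grown in 96-well plates, with endpoints linearly interpolated between the two concentrations bracketing the appropriate inhibition level. GI50 marks 50% less growth. TGI marks complete inhibition of growth.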

Experiments:
Experiment in all cases: DTP human tumour cell line panel, 48 h
SR leukemia = test system: SR leukemia
KM12 colon = test system: KM12 colon
OVCAR-5 ovarian = test system: OVCAR-5 ovarian
DU-145 prostate = test system: DU-145 prostate
M14 melanoma = test system: M14 melanoma
SK-MEL-28 melanoma = test system: SK-MEL-28 melanoma
HCT-116 colon = test system: HCT-116 colon
HCC-2998 colon = test system: HCC-2998 colon
EKVX NSCLC = test system: EKVX NSCLC
CAKI-1 renal = test system: CAKI-1 renal
U251 CNS = test system: U251 CNS
PC-3 prostate = test system: PC-3 prostate
SF-268 CNS = test system: SF-268 CNS
UO-31 renal = test system: UO-31 renal
LOX IMVI melanoma = test system: LOX IMVI melanoma
BT-549 breast = test system: BT-549 breast
A498 renal = test system: A498 renal
786-0 renal = test system: 786-0 renal
SW-620 colon = test system: SW-620 colon
OVCAR-3 ovarian = test system: OVCAR-3 ovarian
K-562 leukemia = test system: K-562 leukemia
MCF7 breast = test system: MCF7 breast
SF-295 CNS = test system: SF-295 CNS
HL-60(TB) leukemia = test system: HL-60(TB) leukemia
SF-539 CNS = test system: SF-539 CNS
MDA-MB-231 breast = test system: MDA-MB-231 breast
NCI-H226 lung = test system: NCI-H226 lung
NCI-H460 lung = test system: NCI-H460 lung
MALME-3M melanoma = test system: MALME-3M melanoma

COc1ccccc1CNCCCN1C(=O)c2ccc3c4c(ccc(c24)C1=O)C(=O)N(CCCNCCCN)C3=O
GI50 (SR leukemia): 27.3 nM | TGI (SR leukemia): 9.2 µM | GI50 (KM12 colon): 705 nM | TGI (KM12 colon): 4.14 µM | GI50 (OVCAR-5 ovarian): 1410 nM | TGI (OVCAR-5 ovarian): 7.36 µM | GI50 (DU-145 prostate): 630 nM | TGI (DU-145 prostate): 2390 nM | GI50 (M14 melanoma): 972 nM | TGI (M14 melanoma): 2710 nM | GI50 (SK-MEL-28 melanoma): 740 nM | TGI (SK-MEL-28 melanoma): 2700 nM | GI50 (HCT-116 colon): 136 nM | TGI (HCT-116 colon): 3.04 µM | GI50 (HCC-2998 colon): 350 nM | TGI (HCC-2998 colon): 1980 nM | GI50 (EKVX NSCLC): 1020 nM | TGI (EKVX NSCLC): 2990 nM | GI50 (CAKI-1 renal): 1110 nM | TGI (CAKI-1 renal): 5.77 µM | GI50 (U251 CNS): 106 nM | TGI (U251 CNS): 1620 nM | GI50 (PC-3 prostate): 653 nM | TGI (PC-3 prostate): 4.61 µM | GI50 (SF-268 CNS): 410 nM | TGI (SF-268 CNS): 6.37 µM | GI50 (UO-31 renal): 744 nM | TGI (UO-31 renal): 3.08 µM | GI50 (LOX IMVI melanoma): 232 nM | TGI (LOX IMVI melanoma): 1920 nM | GI50 (BT-549 breast): 1440 nM | TGI (BT-549 breast): 3.81 µM | GI50 (A498 renal): 342 nM | TGI (A498 renal): 2150 nM | GI50 (786-0 renal): 712 nM | TGI (786-0 renal): 7.18 µM | GI50 (SW-620 colon): 105 nM | TGI (SW-620 colon): 1790 nM | GI50 (OVCAR-3 ovarian): 324 nM | TGI (OVCAR-3 ovarian): 1420 nM | GI50 (K-562 leukemia): 216 nM | TGI (K-562 leukemia): 3.76 µM | GI50 (MCF7 breast): 123 nM | TGI (MCF7 breast): 2430 nM | GI50 (SF-295 CNS): 450 nM | TGI (SF-295 CNS): 4.61 µM | GI50 (HL-60(TB) leukemia): 744 nM | TGI (HL-60(TB) leukemia): 2780 nM | GI50 (SF-539 CNS): 968 nM | TGI (SF-539 CNS): 2820 nM | GI50 (MDA-MB-231 breast): 1410 nM | TGI (MDA-MB-231 breast): 9.72 µM | GI50 (NCI-H226 lung): 746 nM | TGI (NCI-H226 lung): 3.2 µM | GI50 (NCI-H460 lung): 146 nM | TGI (NCI-H460 lung): 1410 nM | GI50 (MALME-3M melanoma): 898 nM
